In patent US11179438B1, “Chicken cathelicidins as a cancer therapy” (King Abdulaziz University, priority 2021, dated 2021):
Like-named read-outs stand apart in the source and are kept apart here. Ends that are not written are not given here.

Legend:
[1] = tested on: breast (MCF-7) and colon cancer (HCT116) cell lines; assay type: cell-based, human; settings: for survival rate / decline in the cell growth: 48 h; for survival rate: cell line not stated; for decline in the cell growth: 40 μg/ml, both cell lines; for growth: 72 h incubation, high concentration for cathelicidin-2 and -3, breast and colon cancer cell lines
Protocol: (§1) The breast (MCF-7) and colon cancer (HCT116) cell lines were purchased from the American Type Culture Collection (Manassas, Va., USA) and maintained at 37° C. in a 1:1 mixture of Dulbecco's modified Eagle's medium DMEM high glucose (4.5 g/L) supplemented with 10% FBS in Corning®T75 flasks containing 1.2 g/l sodium bicarbonate (Sigma-Aldrich, St. Louis, Mo., USA), 2.5 mM L-glutamine (Invitrogen Life Technologies), 15 mM HEPES, and 0.5 mM sodium pyruvate supplemented with 400 ng/ml hydrocortisone (Sigma-Aldrich) and 10% fetal bovine serum (PAA Laboratories, Pasching, Austria) in a humidity incubator with 5% CO2 and 95% air. The culture medium was refreshed every 2-3 days for a period of 5-7 days to allow for recovery from cryopreservation and for confluency to be reached. For cell subculturing, the cells were digested with 0.25% trypsin and 0.03% EDTA solution (Invitrogen Life Technologies). Upon reaching 90% confluency, cell numbers were counted. The density of cells was 5 λ103 cells/cm^2. After that, the MCF-7 cells were seeded into three 96 well plates and treated with three chicken cathelicidins peptides for three period of incubations (24 h-48 h-72 h) (Li et al., 2014).
(§2) To assess the altered cell viability, Cell Counting Kit-8 (CCK-8) assay (Dojindo Laboratories, Kumamoto, Japan) was performed. Briefly, the cells were seeded in 96-well plates at 5×10^3 cells/well containing 180 μl of medium and cultured for up to 72 h. At the end of each experiment, 5 μl of CCk-8 solution (5 mg/ml) was added into each well, and the cells were incubated for 2 h at 37° C. The optical density value was measured by using BioTek microplate reader (Dynatech Laboratories Inc., Chantilly, Va., USA) at 450 nm. The median inhibition concentration (IC50) values were calculated using the probity model, and the inhibition rate of cell proliferation was calculated as: inhibition rate (%)=1−A450 (test)/A450 (control)×100%. Data were calculated from three independent experiments, each performed in triplicate (Li et al., 2014).

Caspase-3 gene = test: Expression of caspase-3 gene in MCF-7 cells (RT-PCR); assay type: cell-based, human
Protocol: (§3) Total RNA was isolated from MCF-7 cells after chicken cathelicidins treatment using EZ RNA Clean Up Plus DNase Kit (EZ BioResearch, St Louis, Mo., USA)) following the manufacturer's instructions. RT-PCR was performed by using 1 μg of total RNA samples in the Access RT-PCR System (Bioneer Corporation Co., Ltd, South Korea) under the following conditions: first-strand DNA was synthesized with 12 cycles at 37° C. for 10 sec, 48° C. for 4 min and 60° C. for 30 sec and finally, heat inactivation at 95° C. for 5 mins then denatured at 94° C. for 5 min for the first cycle but for 30 sec for the additional 35 cycles; annealing according to Table 2 for 30 sec and extension at 72° C. for 2 min; and a final extension at 72° C. for 10 min. The PCR products were then subjected to electrophoresis in a 1.2% agarose gel and stained with ethidium bromide.
(§4) For RT-qPCR, cDNA was synthesized by using 0.5 μg of total RNA with a SuperScriptIII® Cells Direct cDNA Synthesis kit (Bioneer, Inc, Daejeon, Republic of Korea). The levels of IL-18, cyclin D1, cyclin A1, caspase-3 and 7 mRNA were amplified in triplicate using the SYBR-Green® Real-time PCR master mix (Biotool LLC, Houston, Tex., USA) on a LightCycler®480 Real-Time PCR system (Roche, Basel, Switzerland). […] The relative levels of gene expression were quantified by using the comparative CT method of ^−ΔΔCt (Livak and Schmittgen, 2001).

[2] = tested on: breast cancer cells (MCF-7); test: Cell viability assay (CCK-8), MCF-7; assay type: cell-based, human; settings: 72 h
Protocol: as §1, §2

[3] = tested on: human colon cancer cell line (HCT116); test: Cell viability assay (CCK-8), HCT116; assay type: cell-based; settings: 72 h
Protocol: as §1, §2

Caspase-7 gene = test: Expression of caspase-7 gene in MCF-7 cells (RT-PCR); assay type: cell-based, human
Protocol: as §3, §4

[4] = moderate concentration (20 μg/ml)

Molecule	survival rate ([1]; low concentration (10 μg/ml)) [%]	survival rate ([1]; moderate concentration (printed 10 μg/ml)) [%]	caspase-3 gene expression relative to untreated cells (Caspase-3 gene)	development rate ([2]; low concentration) [%]	development rate [2, 4] [%]	decline in the cell growth [1]	growth [1] [%]	development rate ([3]; low concentration) [%]	development rate [3, 4] [%]	caspase-7 gene expression relative to untreated cells (Caspase-7 gene)
CC[C@H](C)[C@H](NC(=O)[C@H](CCCCN)NC(=O)[C@H](CCC(=O)O)NC(=O)[C@H](CCCCN)NC(=O)[C@H](CO)NC(=O)[C@H](CCCCN)NC(=O)[C@H](CCCNC(=N)N)NC(=O)[C@H](Cc1ccccc1)NC(=O)[C@H](Cc1ccccc1)NC(=O)[C@H](CC(=O)O)NC(=O)CNC(=O)[C@H](CC(C)C)NC(=O)[C@@H](N)CC(C)C)C(=O)NCC(=O)N[C@@H](CCCCN)C(=O)N[C@@H](CCC(=O)O)C(=O)N[C@@H](Cc1ccccc1)C(=O)N[C@@H](CCCCN)C(=O)N[C@@H](CCCNC(=N)N)C(=O)N[C@H](C(=O)N[C@H](C(=O)N[C@@H](CCC(N)=O)C(=O)N[C@@H](CCCNC(=N)N)C(=O)N[C@H](C(=O)N[C@@H](CCCCN)C(=O)N[C@@H](CC(=O)O)C(=O)N[C@@H](Cc1ccccc1)C(=O)N[C@@H](CC(C)C)C(=O)N[C@@H](CCCNC(=N)N)C(=O)N[C@@H](CC(N)=O)C(=O)N[C@@H](CC(C)C)C(=O)N[C@H](C(=O)N1CCC[C@H]1C(=O)N[C@@H](CCCNC(=N)N)C(=O)N[C@H](C(=O)N[C@@H](CCC(=O)O)C(=O)N[C@@H](CO)C(=O)O)[C@@H](C)O)C(C)C)[C@@H](C)CC)C(C)C)[C@@H](C)CC [Cathelicidin-1]	25	12	–	–	–	–	–	–	–	–
RFGRFLRKIRRFRPKVTITIQGSARF [Cathelicidin-2]	–	–	two times greater	72	44	10%	7	61.3	24	two-fold
RVKRFWPLVPVAINTVAAGINLYKAIRRK [Cathelicidin-3]	–	–	two times greater	73	73	about 7%	16	65	43.5	two-fold
